In paper PMC7429263 (ACS infectious diseases, 2020):
Values after ≈ are worked out from the molar mass of the structure shown. Read-outs that look alike come from different tables or passages of the source. Blank lines part the entries; values can stand above or below the compound they belong to.

How the values were obtained:
[1] = tested on: VanA E. faecium ATCC BAA-2317; assay: standard microdilution antimicrobial assay; type: cell-based
[2] = tested on: VanA VRE E. faecalis BM 4166 and E. faecium ATCC BAA-2317; conditions: 3 even at 100 μM; cited from earlier work
in vivo PK in mice = conditions: iv
VanA VRE, 4 strains [3] = assay: standard microdilution assay, panel of vancomycin-resistant organisms; type: cell-based, E. faecalis, E. faecium
VanA E. faecalis BM 4166 = assay: standard microdilution antimicrobial assay; type: cell-based
two VanA VRE strains [4] = conditions: same two VanA VRE strains; cited from earlier work
[5] = tested on: Sensitive S. aureus ATCC 25923; assay: standard microdilution antimicrobial assay; type: cell-based; conditions: Staphylococcus aureus, ATCC25923
[6] = tested on: MRSA S. aureus ATCC 43300; assay: standard microdilution antimicrobial assay; type: cell-based; conditions: Staphylococcus aureus, ATCC43300|MRSA
[7] = tested on: VanA VRE E. faecalis BM 4166; assay: microbe, parasite or virus in culture; conditions: Enterococcus faecalis
[8] = tested on: VanA VRE E. faecalis BM 4166; conditions: BM 4166, +LTA 100 μg/mL
VanA E. faecium TX2465 = assay: standard microdilution antimicrobial assay; type: cell-based; conditions: Enterococcus faecium
[9] = tested on: VanB E. faecalis ATCC 51299; assay: standard microdilution antimicrobial assay; type: cell-based; conditions: Enterococcus faecalis, ATCC51299
[10] = tested on: VanA VRSA strain (VRS2), S. aureus; conditions: cited from earlier work
[11] = tested on: VanA VRE E. faecalis BM 4166 and E. faecium ATCC BAA-2317; assay: bacteria cell membrane permeability assay; conditions: 10 μM added at 5 min
[12] = tested on: VanA VRE E. faecalis BM 4166 and E. faecium ATCC BAA-2317; assay: microdilution antimicrobial assay with added LTA or other additives; type: cell-based; conditions: 100 μg/mL LTA
[13] = D-Ala-D-Ala to D-Ala-D-Lac remodeling; cited from earlier work
[14] = tested on: VanA VRE E. faecium ATCC BAA-2317; type: cell-based; conditions: ATCC BAA-2317, +LTA 100 μg/mL
VanA VRE, 4 strains [15] = conditions: resistant pathogens with D-Ala-D-Lac cell wall precursor; cited from earlier work
two VanA VRE strains [16] = assay: multi-passage resistance development assay; type: cell-based; conditions: Enterococcus

Structure (SMILES): CN[C@H](CC(C)C)C(=O)N[C@H]1C(=O)N[C@@H](CC(N)=O)C(=O)N[C@H]2C(=O)NC3C(=O)N[C@H](C(=O)N[C@H](C(=O)NCCC[N+](C)(C)C)c4cc(O)cc(O)c4-c4cc3ccc4O)[C@H](O)c3ccc(c(Cl)c3)Oc3cc2cc(c3OC2OC(CO)C(O)[C@H](O)[C@@H]2O[C@H]2CC(C)(N)[C@H](O)[C@H](C)O2)Oc2ccc(cc2Cl)[C@H]1O (stereo partly shown) [C1-vancomycin (3)]
MIC [1]: 31 µg/mL
induced cell membrane permeabilization, in words [2]: weaker

Structure (SMILES): CN[C@H](CC(C)C)C(=O)N[C@H]1C(=O)N[C@@H](CC(N)=O)C(=O)N[C@H]2C(=O)NC3C(=O)N[C@H](C(=O)N[C@H](C(=O)NCCC[N+](C)(C)C)c4cc(O)cc(O)c4-c4cc3ccc4O)[C@H](O)c3ccc(c(Cl)c3)Oc3cc2cc(c3OC2OC(CO)C(O)[C@H](O)[C@@H]2O[C@H]2CC(C)(NCc3ccc(-c4ccc(Cl)cc4)cc3)[C@H](O)[C@H](C)O2)Oc2ccc(cc2Cl)[C@H]1O (stereo partly shown) [C1-CBP-vancomycin (4)]
MIC [1]: 0.3 µg/mL
induced cell membrane permeabilization, in words [2]: pronounced membrane permeabilization
AUC (in vivo PK in mice; 10 mg/kg): 48.4 Mg-h/mL
CL (in vivo PK in mice; 10 mg/kg): 2 mL/min/kg
Cmax (in vivo PK in mice; 10 mg/kg): 14.5 Mg/mL
Vss (in vivo PK in mice; 10 mg/kg): 0.64 L/kg
t1/2 (in vivo PK in mice; 10 mg/kg): 5.1 h
tmax (in vivo PK in mice; 10 mg/kg): 4.8 min
improvement in antimicrobial potency compared with vancomycin (VanA VRE, 4 strains [3]): ca. 1000 fold

MIC [1]: 63 µg/mL (≈ 39.2 µM)
MIC (VanA E. faecalis BM 4166; VanA E. faecalis BM 4166): 63 µg/mL (≈ 39.2 µM)
Structure (SMILES): CN[C@H](CC(C)C)C(=O)N[C@H]1C(=O)N[C@@H](CC(N)=O)C(=O)N[C@H]2C(=O)N[C@H]3C(=O)N[C@H](C(=O)N[C@H](C(=O)N[C@@H](CCCNC(=N)N)C(=O)O)c4cc(O)cc(O)c4-c4cc3ccc4O)[C@H](O)c3ccc(c(Cl)c3)Oc3cc2cc(c3OC2OC(CO)C(O)[C@H](O)C2O[C@H]2CC(C)(N)[C@H](O)[C@H](C)O2)Oc2ccc(cc2Cl)[C@H]1O (stereo partly shown) [Arg-vancomycin (11)]

Structure (SMILES): CC(=O)NC[C@H]1CN(c2ccc(N3CCOCC3)c(F)c2)C(=O)O1 [linezolid]
rate of resistance emergence, in words (two VanA VRE strains [4]): raise resistance more rapidly and in a more pronounced manner than either 2 or 5

Structure (SMILES): CN[C@H](CC(C)C)C(=O)N[C@H]1C(=O)N[C@@H](CC(N)=O)C(=O)N[C@H]2C(=O)N[C@H]3C(=O)N[C@H](C(=O)N[C@H](C(=O)O)c4cc(O)cc(O)c4-c4cc3ccc4O)[C@H](O)c3ccc(c(Cl)c3)Oc3cc2cc(c3O[C@@H]2O[C@H](CO)[C@@H](O)[C@H](O)[C@H]2O[C@H]2C[C@](C)(N)[C@H](O)[C@H](C)O2)Oc2ccc(cc2Cl)[C@H]1O [vancomycin (1), vancomycin]
MIC [5]: 0.5 µg/mL (≈ 0.345 µM)
MIC [6]: 0.5 µg/mL (≈ 0.345 µM)
MIC [7]: 250 µg/mL (≈ 173 µM)
MIC [8]: 250 µg/mL (≈ 173 µM)
MIC (VanA E. faecium TX2465): 250 µg/mL (≈ 173 µM)
MIC [9]: 8 µg/mL (≈ 5.52 µM)
activity in the thigh infection model, in words [10]: inactive
induced cell membrane permeabilization, in words [11]: no permeabilization
decrease of antimicrobial activity with added LTA [12]: no difference
reduction of binding affinity [13]: 1000 fold
dose proportionality of PK, in words (in vivo PK in mice): well behaved dose proportional PK across all parameters
MIC [14]: 250 µg/mL (≈ 173 µM)
reduction of antimicrobial potency (VanA VRE, 4 strains [15]): 1000 fold
MIC (two VanA VRE strains [16]): 250 µg/mL (≈ 173 µM)
MIC (VanA E. faecalis BM 4166; Enterococcus faecalis): 250 µg/mL (≈ 173 µM)

Structure (SMILES): CCCCCCCCCC(=O)N[C@@H](Cc1c[nH]c2ccccc12)C(=O)N[C@H](CC(N)=O)C(=O)N[C@@H](CC(=O)O)C(=O)N[C@@H]1C(=O)NCC(=O)N[C@@H](CCCN)C(=O)N[C@@H](CC(=O)O)C(=O)N[C@H](C)C(=O)N[C@@H](CC(=O)O)C(=O)NCC(=O)N[C@H](CO)C(=O)N[C@@H]([C@H](C)CC(=O)O)C(=O)N[C@@H](CC(=O)c2ccccc2N)C(=O)O[C@@H]1C [daptomycin]
rate of resistance emergence, in words (two VanA VRE strains [4]): raise resistance more rapidly and in a more pronounced manner than either 2 or 5

Structure (SMILES): CN(C)c1cc(NC(=O)CNC(C)(C)C)c(O)c2c1C[C@H]1C[C@H]3[C@H](N(C)C)C(O)=C(C(N)=O)C(=O)[C@@]3(O)C(O)=C1C2=O [tigecycline]
rate of resistance emergence, in words (two VanA VRE strains [4]): raise resistance more rapidly and in a more pronounced manner than either 2 or 5
